Data from patent US6441021B1, “Sulfonated amino acid derivatives and metalloproteinase inhibitors containing the same” (Shionogi & Co., Ltd., priority 1996, dated 2002).

These molecules were tested against T1, MMP-9 (92 kDa, gelatinase B; type IV collagenase) (Homo sapiens, UniProt P14780) (assay: Assay of type IV collagenase inhibitors: activated MMP-9 with type IV collagenase activity kit substrate, fluorescent intensity). Settings: not given.
T1 construct: endogenous in cells; enzyme purified from the conditioned medium
T1 sequence (P14780 107-707 limits assumed): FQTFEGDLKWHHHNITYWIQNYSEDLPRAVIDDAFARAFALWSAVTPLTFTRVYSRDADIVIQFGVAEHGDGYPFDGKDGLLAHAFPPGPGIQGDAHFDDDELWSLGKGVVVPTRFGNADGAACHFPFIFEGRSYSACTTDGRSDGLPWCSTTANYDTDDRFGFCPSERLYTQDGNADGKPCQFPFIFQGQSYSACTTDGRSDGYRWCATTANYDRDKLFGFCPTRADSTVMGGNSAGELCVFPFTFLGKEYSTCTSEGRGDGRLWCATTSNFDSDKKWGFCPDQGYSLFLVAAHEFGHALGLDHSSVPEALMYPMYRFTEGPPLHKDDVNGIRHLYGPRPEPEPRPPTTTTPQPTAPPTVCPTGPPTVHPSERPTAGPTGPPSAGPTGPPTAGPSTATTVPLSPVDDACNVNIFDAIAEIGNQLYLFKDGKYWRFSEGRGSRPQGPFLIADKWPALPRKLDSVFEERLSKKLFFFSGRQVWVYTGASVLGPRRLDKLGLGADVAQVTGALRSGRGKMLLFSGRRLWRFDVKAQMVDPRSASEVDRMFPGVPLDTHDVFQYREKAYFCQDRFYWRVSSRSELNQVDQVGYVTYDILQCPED
Type: biochemical
Experimental: (1) Isolation and Purification of MMP-9 (92 kDa, Gelatinase B)
Type IV collagenase (MMP-9) was purified according to the methods descrived in the following literature.
Subsequently, activated MMP-9 was obtained by treating the pro-MMP-9 with trypsin.
(2) Assay Methods of Type IV Collagenase Inhibitors
Collagenase assay was performed using the activated MMP-9 described above and the substrate supplied in the type IV collagenase activity kit (YAGAI, inc.), according to the manufacturer's protocol. The following 4 assays are performed per compound (inhibitor).
(A) substrate (type IV collagenase), enzyme (MMP-9), inhibitor
(B) substrate (type IV collagenase), inhibitor
(C) substrate (type IV collagenase), enzyme (MMP-9)
(D) substrate (type IV collagenase)
According to the manufacturer's protocol, fluorescent intensity was measured and percent inhibition was determined by the following equation.
Inhibition (%)={1−(A−B)/(C−D)}×100
With `COc1ccc(C(=O)Nc2ccc(S(=O)(=O)N[C@H](Cc3c[nH]c4ccccc34)C(=O)O)cc2)cc1` [Example 178] the IC50 was 25.2 nM.
Molecule `O=C(Nc1ccc(S(=O)(=O)N[C@H](Cc2c[nH]c3ccccc23)C(=O)O)cc1)c1ccc([N+](=O)[O-])cc1` [Example 180] has an IC50 of 45 nM.
For `CN(C)c1ccc(C(=O)Nc2ccc(S(=O)(=O)N[C@H](Cc3c[nH]c4ccccc34)C(=O)O)cc2)cc1` [Example 181], the IC50 was 53.9 nM.
`Cc1ccc(C(=O)Nc2ccc(S(=O)(=O)N[C@H](Cc3c[nH]c4ccccc34)C(=O)O)cc2)cc1` [Example 182] was tested, and the IC50 was 5.9 nM.
Molecule `CSc1ccc(C(=O)Nc2ccc(S(=O)(=O)N[C@H](Cc3c[nH]c4ccccc34)C(=O)O)cc2)cc1` [Example 184] has an IC50 of 3.25 nM.
With `O=C(Nc1ccc(S(=O)(=O)N[C@H](Cc2c[nH]c3ccccc23)C(=O)O)cc1)c1ccc(F)cc1` [Example 185] the IC50 was 42.2 nM.
Molecule `CC(C)[C@@H](NS(=O)(=O)c1ccc(NC(=O)c2ccc(-c3ccccc3)cc2)cc1)C(=O)O` [Example 195] has an IC50 of 1100 nM.
In the case of `Cc1ccc(C(=O)Nc2ccc(S(=O)(=O)N[C@@H](C(=O)O)C(C)C)cc2)cc1` [Example 196], the IC50 is reported as 57.3 nM.
`CC(C)[C@@H](NS(=O)(=O)c1ccc(NC(=O)c2ccccc2)cc1)C(=O)O` [Example 199] gave an IC50 of 2060 nM.
With `COc1ccc(C(=O)Nc2ccc(S(=O)(=O)N[C@@H](C(=O)O)C(C)C)cc2)cc1` [Example 200] the IC50 was 173 nM.
`CC(C)[C@@H](NS(=O)(=O)c1ccc(NC(=O)c2ccc([N+](=O)[O-])cc2)cc1)C(=O)O` [Example 201] showed an IC50 of 252 nM.
In the case of `COc1ccc(C(=O)Nc2ccc(S(=O)(=O)N[C@@H](C(=O)O)C(C)(C)C)cc2)cc1` [Example 203], the IC50 is reported as 173 nM.
With `O=C(O)[C@@H](Cc1c[nH]c2ccccc12)NS(=O)(=O)c1ccc(-c2nnn(-c3ccccc3)n2)cc1` [Example 210] the IC50 was 24 nM.
For `O=C(O)C(Cc1cccc2ccccc12)NS(=O)(=O)c1ccc(-c2nnn(-c3ccccc3)n2)cc1` (centres unmarked) [Example 218], the IC50 was 744 nM.
With `O=Cn1cc(C[C@@H](NS(=O)(=O)c2ccc(-c3nnn(-c4ccccc4)n3)cc2)C(=O)O)c2ccccc21` [Example 219] the IC50 was 574 nM.
Work on `CCC(C)[C@@H](NS(=O)(=O)c1ccc(-c2nnn(-c3ccc(OC)cc3)n2)cc1)C(=O)O` (some centres unmarked) [Example 222] yielded an IC50 of 78 nM.
`CC(C)[C@@H](NS(=O)(=O)c1ccc(-c2nnn(-c3ccc(Br)cc3)n2)cc1)C(=O)O` [Example 225] showed an IC50 of 12.2 nM.
In the case of `O=C(O)[C@@H](Cc1ccccc1)NS(=O)(=O)c1ccc(-c2nnn(-c3ccc(Br)cc3)n2)cc1` [Example 228], the IC50 is reported as 106 nM.
In the case of `O=C(O)[C@@H](Cc1ccccc1)NS(=O)(=O)c1ccc(-c2nnn(-c3ccc([N+](=O)[O-])cc3)n2)cc1` [Example 230], the IC50 is reported as 281 nM.
`O=C(O)[C@@H](Cc1ccccc1)NS(=O)(=O)c1ccc(-c2nnn(-c3ccc(F)cc3)n2)cc1` [Example 231] showed an IC50 of 197 nM.
With `O=C(O)[C@@H](Cc1ccccc1)NS(=O)(=O)c1ccc(-c2nnn(-c3ccc(Cl)cc3)n2)cc1` [Example 232] the IC50 was 144 nM.
Work on `COc1ccc(-n2nnc(-c3ccc(S(=O)(=O)N[C@H](Cc4ccccc4)C(=O)O)cc3)n2)cc1` [Example 234] yielded an IC50 of 153 nM.
Work on `N#Cc1ccc(-n2nnc(-c3ccc(S(=O)(=O)N[C@H](Cc4ccccc4)C(=O)O)cc3)n2)cc1` [Example 235] yielded an IC50 of 265 nM.

Same assay, conditions: activated MMP-9, type IV collagenase activity kit substrate, fluorescent intensity; concentration at which percent inhibition reaches 50%
In the case of `O=C(O)C(Cc1c[nH]c2ccc(F)cc12)NS(=O)(=O)c1ccc(-c2ccccc2)cc1` (racemic) [Example 1a-1-18], the IC50 is reported as 500 nM.
With `Cc1ccc2[nH]cc(CC(NS(=O)(=O)c3ccc(Oc4ccccc4)cc3)C(=O)O)c2c1` (racemic) [Example 1a-1-65] the IC50 was 291 nM.
`O=C(NO)C(Cc1cscn1)NS(=O)(=O)c1ccc(-c2ccccc2)cc1` (racemic) [Example 1b-1-2] showed an IC50 of 40 nM.
`Cc1ccc2[nH]cc(CC(NS(=O)(=O)c3ccc(-c4ccccc4)cc3)C(=O)NO)c2c1` (racemic) [Example 1b-1-17] was tested, and the IC50 was 20.3 nM.
`O=C(O)[C@@H](Cc1ccccc1)NS(=O)(=O)c1ccc(-c2ccccc2)cc1` [Example 1a-1-1] was tested, and the IC50 was 240 nM.
`O=C(O)[C@@H](Cc1c[nH]c2ccccc12)NS(=O)(=O)c1ccc(-c2ccc(F)cc2)cc1` [Example 1a-1-41] showed an IC50 of 312 nM.
In the case of `CC(C)[C@@H](NS(=O)(=O)c1ccc(-c2ccccc2)cc1)C(=O)O` [Example 1a-1-43], the IC50 is reported as 625 nM.
`CC(C)[C@@H](NS(=O)(=O)c1ccc(-c2ccc(C(C)(C)C)cc2)cc1)C(=O)O` [Example 1a-1-44] was tested, and the IC50 was 1910 nM.
For `CC(C)[C@@H](NS(=O)(=O)c1ccc(-c2ccc(-c3ccccc3)cc2)cc1)C(=O)O` [Example 1a-1-45], the IC50 was 40 nM.
`CC(C)[C@@H](NS(=O)(=O)c1ccc(-c2ccc(C(F)(F)F)cc2)cc1)C(=O)O` [Example 1a-1-46] showed an IC50 of 1120 nM.
In the case of `CC(C)[C@@H](NS(=O)(=O)c1ccc(-c2ccc(F)cc2)cc1)C(=O)O` [Example 1a-1-48], the IC50 is reported as 1150 nM.
`COc1ccc(-c2ccc(S(=O)(=O)N[C@H](Cc3ccccc3)C(=O)O)cc2)cc1` [Example 1a-1-50] was tested, and the IC50 was 553 nM.
With `CSc1ccc(-c2ccc(S(=O)(=O)N[C@H](Cc3ccccc3)C(=O)O)cc2)cc1` [Example 1a-1-54] the IC50 was 75 nM.
`CSc1ccc(-c2ccc(S(=O)(=O)N[C@@H](C(=O)O)C(C)C)cc2)cc1` [Example 1a-1-55] showed an IC50 of 39.8 nM.
`O=C(O)[C@@H](Cc1ccccc1)NS(=O)(=O)c1ccc(Oc2ccccc2)cc1` [Example 1a-1-60] showed an IC50 of 1310 nM.
In the case of `O=C(O)[C@@H](Cc1c[nH]c2ccccc12)NS(=O)(=O)c1ccc(Oc2ccccc2)cc1` [Example 1a-1-61], the IC50 is reported as 247 nM.
Work on `O=C(NO)[C@@H](Cc1ccccc1)NS(=O)(=O)c1ccc(-c2ccccc2)cc1` [Example 1b-1-1] yielded an IC50 of 30 nM.
Molecule `O=C(NO)[C@@H](Cc1ccccc1)NS(=O)(=O)c1ccc(C(F)(F)F)cc1` [Example 1b-1-10] has an IC50 of 2100 nM.
With `CN(C)c1cccc2c(S(=O)(=O)N[C@H](Cc3ccccc3)C(=O)NO)cccc12` [Example 1b-1-11] the IC50 was 1700 nM.
With `O=C(NO)[C@@H](Cc1ccccc1)NS(=O)(=O)c1ccc(O)cc1` [Example 1b-1-24] the IC50 was 200 nM.
For `O=C(NO)[C@@H](Cc1ccccc1)NS(=O)(=O)c1ccc([N+](=O)[O-])cc1` [Example 1b-1-27], the IC50 was 3000 nM.
With `O=C(NO)[C@@H](Cc1c[nH]c2ccccc12)NS(=O)(=O)c1ccc(-c2ccccc2)cc1` [Example 1b-1-33] the IC50 was 5 nM.
`O=C(NO)[C@@H](Cc1ccccc1)NS(=O)(=O)c1ccc(Oc2ccccc2)cc1` [Example 1b-1-60] gave an IC50 of 1.2 nM.
Work on `O=C(NO)[C@H](Cc1c[nH]c2ccccc12)NS(=O)(=O)c1ccc(Oc2ccccc2)cc1` [Example 1b-1-62] yielded an IC50 of 3500 nM.
For `CC(C)[C@@H](NS(=O)(=O)c1ccc(Oc2ccccc2)cc1)C(=O)NO` [Example 1b-1-63], the IC50 was 0.39 nM.

Same assay, conditions: inhibition of type IV collagenase (MMP-9), concentration at which percent inhibition reaches 50%
`COc1ccc(-c2ccc(S(=O)(=O)N[C@H](Cc3ccccc3)C(=O)O)s2)cc1` [1a-3-10] was tested, and the IC50 was 8.3 nM.
`O=C(O)[C@@H](Cc1c[nH]c2ccccc12)NS(=O)(=O)c1ccc(-c2nc3ccccc3s2)cc1` [Example 1a-1-83] gave an IC50 of 1770 nM.
For `CN(C)c1ccc(N=Nc2ccc(S(=O)(=O)N[C@H](Cc3ccccc3)C(=O)O)cc2)cc1` [Example 1a-1-86], the IC50 was 350 nM.
With `O=C(O)[C@@H](Cc1c[nH]c2ccccc12)NS(=O)(=O)c1ccc(C#Cc2ccccc2)cc1` [Example 1a-2-2] the IC50 was 237 nM.
With `O=C(O)[C@@H](Cc1c[nH]c2ccccc12)NS(=O)(=O)c1ccc(C#Cc2ccc([N+](=O)[O-])cc2)cc1` [Example 1a-2-7] the IC50 was 69.9 nM.
`Nc1ccc(C#Cc2ccc(S(=O)(=O)N[C@H](Cc3c[nH]c4ccccc34)C(=O)O)cc2)cc1` [Example 1a-2-9] was tested, and the IC50 was 57.7 nM.
Work on `C#Cc1ccc(C#Cc2ccc(S(=O)(=O)N[C@H](Cc3c[nH]c4ccccc34)C(=O)O)cc2)cc1` [Example 1a-2-11] yielded an IC50 of 47.5 nM.
With `CC(C)[C@@H](NS(=O)(=O)c1ccc(C#Cc2ccc(F)cc2)cc1)C(=O)O` [Example 1a-2-19] the IC50 was 203 nM.
`COc1ccc(C#Cc2ccc(S(=O)(=O)N[C@@H](C(=O)O)C(C)(C)C)cc2)cc1` [Example 1a-2-20] was tested, and the IC50 was 3410 nM.
For `CCC(C)[C@@H](NS(=O)(=O)c1ccc(C#Cc2ccc(OC)cc2)cc1)C(=O)O` (some centres unmarked) [Example 1a-2-21], the IC50 was 3740 nM.
For `Cc1ccc(C#Cc2ccc(S(=O)(=O)N[C@H](Cc3ccccc3)C(=O)O)s2)cc1` [Example 1a-2-37], the IC50 was 92.2 nM.
Molecule `O=C(O)[C@@H](Cc1ccccc1)NS(=O)(=O)c1ccc(C#Cc2ccc(F)cc2)s1` [Example 1a-2-38] has an IC50 of 222 nM.
`Cc1ccc(-c2ccc(S(=O)(=O)N[C@H](Cc3c[nH]c4ccccc34)C(=O)O)s2)cc1` [Example 1a-3-3] was tested, and the IC50 was 10.8 nM.
Molecule `Cc1ccc(-c2ccc(S(=O)(=O)N[C@@H](C(=O)O)C(C)C)s2)cc1` [Example 1a-3-7] has an IC50 of 230 nM.
`CC(C)[C@@H](NS(=O)(=O)c1ccc(-c2ccc(F)cc2)s1)C(=O)O` [Example 1a-3-8] was tested, and the IC50 was 1280 nM.
`CSc1ccc(-c2ccc(S(=O)(=O)N[C@@H](C(=O)O)C(C)C)s2)cc1` [Example 1a-3-9] gave an IC50 of 14 nM.
`O=C(NO)[C@@H](Cc1ccccc1)NS(=O)(=O)c1ccc(N=Nc2ccccc2)cc1` [Example 1b-1-85] gave an IC50 of 13 nM.
`O=C(Nc1ccc(S(=O)(=O)N[C@H](Cc2c[nH]c3ccccc23)C(=O)O)cc1)c1ccc(Br)cc1` [Example 183] was tested, and the IC50 was 2.7 nM.
Molecule `O=C(Nc1ccc(S(=O)(=O)N[C@H](Cc2ccccc2)C(=O)O)cc1)c1ccncc1` [Example 205] has an IC50 of 4440 nM.
In the case of `Cc1ccc(-n2nnc(-c3ccc(S(=O)(=O)N[C@H](Cc4ccccc4)C(=O)O)cc3)n2)cc1` [Example 233], the IC50 is reported as 86.4 nM.
